Assay: 13C NMR peak width at half-height (PWHH) and relative PWHH of sucrose peaks, Example 1
Format: physicochemical
Settings: for PWHH, three lots mean, Average: average of the twelve 13C peaks
Procedure: In Example 1, ^13C NMR was performed on three (3) samples (e.g 3 lots) of a comparator iron sucrose drug product having an equivalent concentration of 20 mg base/mL, and three (3) samples (e.g 3 lots) of a tested iron sucrose drug product having an equivalent concentration of 20 mg base/mL were analyzed by ^13C NMR in Example 1. The comparator product was Venofer® having an equivalent concentration of 20 mg base/mL. In addition, ^13C NMR was also performed on 3 samples (e.g. 3 lots) of free sucrose sample. Free sucrose is sucrose only with no iron.
The average PWHH of the 3 lots of the comparator iron sucrose drug product is identified as w in Tables 1 and 2. The average PWHH of the 3 lots of the tested iron sucrose drug productis identified as w in Tables 1 and 2. The average PWHH of the 3 lots of sucrose only sample is identified as w0 in Tables 1 and 2.
In addition to PWHH, a RPWHH is another characterization method disclosed herein. […] As provided in Table 1, the RPWHH averaged among the twelve (12) C peaks and the 3 lots for: (i) w1/wo is 8.5 f 1.0, and (ii) w2/wo is 7.9±1.1.

Structure (SMILES): OC[C@H]1O[C@@](CO)(O[C@H]2O[C@H](CO)[C@@H](O)[C@H](O)[C@H]2O)[C@@H](O)[C@@H]1O [Sucrose Only, sucrose]
- PWHH, three lots mean (13C Peak No. 1, 106.0 ppm, Fructose, Carbon Atom No. 8): 10.6 ppb
- PWHH, three lots mean (13C Peak No. 2, 95.0 ppm, Glucose, Carbon Atom No. 1): 14.7 ppb
- PWHH, three lots mean (13C Peak No. 3, 84.0 ppm, Fructose, Carbon Atom No. 11): 13.4 ppb
- PWHH, three lots mean (13C Peak No. 4, 79.0 ppm, Fructose, Carbon Atom No. 9): 16.3 ppb
- PWHH, three lots mean (13C Peak No. 5, 76.0 ppm, Fructose, Carbon Atom No. 10): 15.8 ppb
- PWHH, three lots mean (13C Peak No. 6, 75.4 ppm, Glucose, Carbon Atom No. 3): 14.3 ppb
- PWHH, three lots mean (13C Peak No. 7, 75.2 ppm, Glucose, Carbon Atom No. 5): 14.9 ppb
- PWHH, three lots mean (13C Peak No. 8, 73.9 ppm, Glucose, Carbon Atom No. 2): 15.7 ppb
- PWHH, three lots mean (13C Peak No. 9, 72.0 ppm, Glucose, Carbon Atom No. 4): 13.7 ppb
- PWHH, three lots mean (13C Peak No. 10, 65.2 ppm, Fructose, Carbon Atom No. 7): 16.2 ppb
- PWHH, three lots mean (13C Peak No. 11, 64.1 ppm, Fructose, Carbon Atom No. 12): 17.6 ppb
- PWHH, three lots mean (13C Peak No. 12, 62.9 ppm, Glucose, Carbon Atom No. 6): 17.2 ppb
- PWHH, three lots mean, Average: 15.0 ppb
- PWHH, three lots mean, Average (listed as w0): 15±2 ppb
